Assay [1] deals with T1, Ld6PGD (Leishmania donovani, UniProt Q18L02). Description: Dose-response of gold(I)-based compounds against recombinant Ld6PGD (NADPH fluorescence). Type of assay: biochemical. The method, then:
(§1) Dose–response curves of gold(I)-based compounds against Ld6PGD were determined in 96-well plates using a Tecan Infinite M200 plate reader (Tecan, Maennedorf, Switzerland). An amount of 10 mM of each compound was dissolved in 100% DMSO and afterwards diluted in assay buffer to the required concentrations (highest final compound concentration of 100 μM). The DMSO tolerance of the enzymes was determined in advance by incubating the enzymes with up to 6% DMSO and determining their activity. Up to this concentration, no impairment of the enzymes’ catalytic activity was observed. In addition, a DMSO control was included in each measurement.
Different compound concentrations were added to one volume of enzyme mix (final concentrations: 50 mM Tris (pH 7.5), 0.005% Tween 20, 1 mg∙mL^−1 BSA, 0.7 nM Ld6PGD/0.7 nM Pf6PGD/0.9 nM Hs6PGD) and incubated for ten minutes. To start the reaction, one volume substrate mix (final concentrations: 50 mM Tris (pH 7.5), 0.005% Tween 20, 1 mg∙mL^−1 BSA, 3.3 mM MgCl2, 25/20/25 µM 6PG, 20 µM NADP^+ for Ld6PGD, Pf6PGD and Hs6PGD) was added to the wells. To increase the sensitivity of the assay, the increase of NADPH was monitored by measuring the fluorescence of NADPH at excitation 340 nm/emission 460 nm (ex340/em460). The substrate mix without 6PG served as a positive control (100% inhibition) and without the compound, but with DMSO as a negative control (100% activity). The assay contained both substrates either in saturation or at concentrations close to KM to facilitate the identification of competitive inhibitors. The reaction rate was calculated by dividing the relative fluorescence units (RFU) by time, and only a linear increase in absorbance/fluorescence was considered. IC50 values were calculated using GraphPad Prism 9.0 software and Microsoft Excel.

The target in assay [2] is T1, Ld6PGD. Briefly: Mode-of-inhibition study, substrate titration at constant auranofin concentrations (Michaelis-Menten). The format is biochemical. Conditions: for Vmax, NADP+ titrated: 6PG in saturation; for Vmax, 6PG titrated: NADP+ in saturation. The procedure:
For the mechanistic characterization of auranofin, either NADP^+ (0–200 µM) or 6PG (0–250 µM) was titrated at different constant compound concentrations around the IC50 (0–30 µM), while keeping the second substrate in saturation (6PG: 300 µM, NADP^+: 200 µM). To determine the compound mode of inhibition, the relationship between initial velocity (v0) and substrate concentrations ([S]) at various constant compound concentrations was analyzed by plotting the data as Michaelis–Menten curves using GraphPad Prism; KM values and Vmax were calculated with GraphPad Prism as well.

The target in assay [3] is T1, Ld6PGD. Description: Reversibility of Ld6PGD inhibition (incubation at high concentration, then dilution). Type of assay: biochemical. The procedure:
In detail, 14 nM Ld6PGD was incubated with 30 µM auranofin for 10 min at room temperature. […] Afterwards, NADP^+ and 6PG were added to start the reaction, either at substrate saturation (300 µM 6PG, 200 µM NADP^+) or at concentrations close to KM (25 µM 6PG, 20 µM NADP^+). For comparison, controls containing either no inhibitor (100% activity) or inhibitor in the concentration remaining after dilution were prepared. NADPH production was monitored at ex340 nm using the Tecan Infinite M200 plate reader in 96-well plates. Specific activities were calculated from reaction rates. […] Inhibition was considered reversible if the activity of the sample was equal to the controls.

The next assay concerns Leishmania parasites. Also on record: method as in PMID 24328400, PMID 32463611, PMID 33139647. Conditions: trypanosomatid parasites; cited from earlier work.
Assay [4] addresses TR from Leishmania infantum (LiTR). Further details: method as in PMID 21833767. Conditions: read-out: Ki against recombinant TR from Leishmania infantum (LiTR); cited from earlier work.
In a further assay the target is T2, Hs6PGD (Homo sapiens, UniProt P52209).
T2 sequence (P52209 1-483): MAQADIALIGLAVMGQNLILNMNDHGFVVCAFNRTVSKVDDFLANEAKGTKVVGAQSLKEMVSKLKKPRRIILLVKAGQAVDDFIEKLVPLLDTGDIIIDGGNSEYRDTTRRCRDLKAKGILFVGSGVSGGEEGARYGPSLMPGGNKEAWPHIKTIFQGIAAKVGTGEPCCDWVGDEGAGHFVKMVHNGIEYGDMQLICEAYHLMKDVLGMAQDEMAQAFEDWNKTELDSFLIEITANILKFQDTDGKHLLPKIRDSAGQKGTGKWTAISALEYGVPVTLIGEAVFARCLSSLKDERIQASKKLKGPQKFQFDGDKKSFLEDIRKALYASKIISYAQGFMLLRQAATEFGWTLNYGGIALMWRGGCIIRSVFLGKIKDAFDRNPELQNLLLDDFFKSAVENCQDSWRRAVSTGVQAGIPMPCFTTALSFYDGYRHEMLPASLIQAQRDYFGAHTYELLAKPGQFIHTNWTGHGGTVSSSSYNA
Briefly: Dose-response against recombinant Hs6PGD (NADPH fluorescence). The format is biochemical. Conditions: 25 µM 6PG, 20 µM NADP+, highest concentration 100 µM; read-out: IC50 for recombinant protein Hs6PGD. The procedure:
as §1
(§2) Different compound concentrations were added to one volume of enzyme mix (final concentrations: 50 mM Tris (pH 7.5), 0.005% Tween 20, 1 mg∙mL^−1 BSA, 0.7 nM Ld6PGD/0.7 nM Pf6PGD/0.9 nM Hs6PGD) and incubated for ten minutes. […] To increase the sensitivity of the assay, the increase of NADPH was monitored by measuring the fluorescence of NADPH at excitation 340 nm/emission 460 nm (ex340/em460). […] The reaction rate was calculated by dividing the relative fluorescence units (RFU) by time, and only a linear increase in absorbance/fluorescence was considered. IC50 values were calculated using GraphPad Prism 9.0 software and Microsoft Excel.

A further assay deals with Pf6PGD (Plasmodium falciparum, UniProt Q8IKT2). Description: Dose-response against recombinant Pf6PGD (NADPH fluorescence). Type of assay: biochemical. The method, then:
as §1, §2

Assay [5] concerns the target Leishmania donovani 6-phosphogluconate dehydrogenase wild type (Leishmania donovani). Description: SEC; HiLoad 16/60 Superdex 200 in buffer A (500 mM NaCl, 50 mM Tris, pH 7.8); native, with 5 mM DTT, with 2 mM H2O2, with 0.2 mM 6PG, 0.2 mM NADP+ or 0.2 mM NADPH; varying protein concentrations; the dimer peak was the same under all conditions. On the technique in general: SEC sorts molecules by how far they enter the pores of the column.

Read-outs that look alike come from different tables or passages of the source. Bounds are passed on as bounds.

As to `CC(=O)OC[C@H]1O[C@@H]([S-])[C@H](OC(C)=O)[C@@H](OC(C)=O)[C@@H]1OC(C)=O.CCP(CC)CC.[Au+]` [Auranofin], on Ld6PGD [1] (50 µM auranofin), the “Inhibition of Ld6PGD at 50 µM” value was “completely inhibited”. Also, the “IC50 against Ld6PGD with NADP+ at saturation” value on Ld6PGD [1] (enzyme incubated with auranofin and NADP+ at saturation, compared with IC50 at KM) is recorded as “unaffected”. In addition, on Ld6PGD [2] (6PG titrated, NADP+ 200 µM), the “Mode of inhibition against 6PG” value is given as “mixed type of inhibition”. The “Mode of inhibition against NADP+” value on Ld6PGD [2] (NADP+ titrated, 6PG 300 µM) is “non-competitive inhibition”. Moreover, the “Vmax, NADP+ titrated” value is 35.9 U/mg at Ld6PGD [2] (auranofin 1.875 µM); 34.45 U/mg at Ld6PGD [2] (auranofin 3.75 µM); 34.92 U/mg on Ld6PGD [2] (auranofin 7.5 µM); 31.07 U/mg on Ld6PGD [2] (auranofin 15 µM); 23.34 U/mg at Ld6PGD [2] (auranofin 30 µM). In addition, the “Vmax, 6PG titrated” value is 36.43 U/mg at Ld6PGD [2] (auranofin 1.875 µM); 35.23 U/mg on Ld6PGD [2] (auranofin 3.75 µM); 29.59 U/mg at Ld6PGD [2] (auranofin 7.5 µM); 21.59 U/mg at Ld6PGD [2] (auranofin 15 µM); 7.71 U/mg on Ld6PGD [2] (auranofin 30 µM). At Ld6PGD [3] (30 µM auranofin (pre-dilution), substrates at KM), the “Ld6PGD activity of undiluted sample” value is “completely inhibited”. Also, the “Reversibility of Ld6PGD inhibition” value on Ld6PGD [3] (30 µM pre-dilution, diluted to 3 µM, 10 min each) is reported as “irreversible”. Also, the “Concentrations at which increase in ROS and apoptotic-like cell death were observed” value in the assay with Leishmania parasites was 10 to 50 µM. In addition, the inhibition constant Ki in assay [4] was 0.155 ± 0.035 µM.
In the case of `CC[P](CC)(CC)=[Au][S][C@@H]1O[C@H](COC(C)=O)[C@@H](OC(C)=O)[C@H](OC(C)=O)[C@H]1OC(C)=O` [Auranofin], the Ki on Ld6PGD [1] is 3.8 ± 0.4 µM. In addition, the half-maximal inhibitory concentration (IC50) on Ld6PGD [1] (IC50 against Ld6PGD with 6PG at saturation, enzyme incubated with auranofin and 6PG at saturation) is 40.5 ± 1.9 µM; on Ld6PGD [1] (IC50 for recombinant protein Ld6PGD, substrates close to KM (25 µM 6PG, 20 µM NADP+), 10 min incubation with enzyme), 8.6 ± 1 µM; at Hs6PGD it was above 100 µM; on Pf6PGD, 20.1 ± 1.5 µM.
For the compound `[Cl][Au].c1ccc(P(c2ccccc2)c2ccccc2)cc1` [Ph3PAuCl, chloro(triphenylphosphine)gold(I)], the IC50 on Ld6PGD [1] (substrates close to KM (25 µM 6PG, 20 µM NADP+), 10 min incubation with enzyme, read-out: IC50 for recombinant protein Ld6PGD) was 2.1 ± 0.3 µM.
In assay [5], “Leishmania donovani 6-phosphogluconate dehydrogenase wild type (enzyme)” had a stoichiometry N of 2.

What is called Ki is the dissociation constant of the complex between target and ligand, obtained from inhibition or displacement. As a reminder, the IC50 is the concentration needed to halve the response being measured. What is called stoichiometry N is the number of molecules, sites or subunits per partner or assembly.

Source of the values: publication PMC10217883, “Structure of Leishmania donovani 6-Phosphogluconate Dehydrogenase and Inhibition by Phosphine Gold(I) Complexes: A Potential Approach to Leishmaniasis Treatment” (International Journal of Molecular Sciences, 2023).
